T1: DesI (Streptomyces venezuelae, UniProt Q9ZGH0)
T1 sequence (Q9ZGH0 1-415): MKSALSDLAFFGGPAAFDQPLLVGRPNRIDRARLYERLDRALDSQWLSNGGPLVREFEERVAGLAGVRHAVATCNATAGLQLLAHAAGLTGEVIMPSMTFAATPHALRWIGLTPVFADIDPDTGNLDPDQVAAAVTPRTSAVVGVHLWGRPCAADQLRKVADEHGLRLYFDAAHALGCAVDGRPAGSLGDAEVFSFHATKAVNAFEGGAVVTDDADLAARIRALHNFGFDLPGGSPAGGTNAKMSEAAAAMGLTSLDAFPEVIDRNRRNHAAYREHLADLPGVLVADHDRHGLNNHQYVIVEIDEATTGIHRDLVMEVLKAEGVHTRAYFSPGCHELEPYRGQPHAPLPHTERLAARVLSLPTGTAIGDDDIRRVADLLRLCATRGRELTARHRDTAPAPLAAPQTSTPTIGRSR

B1: DesI (Streptomyces venezuelae) (protein)
chain: T1 sequence (Q9ZGH0 1-415)

Assays:
Streptococcus pyogenes = assay: Antibiotic activity, filter paper disc test on agar plates; type: cell-based; conditions: for antibiotic activity against Streptococcus pyogenes (inhibition zone around disc): 20 μL of each sample (1.6 mM in MeOH) on filter paper discs, Mueller-Hinton agar plates, overnight at 37° C.; for activity against Streptococcus pyogenes grown on Mueller-Hinton agar plates: purified compounds
Method: The antibiotic activity of a compound of formula (13) and (14) against Streptococcus pyogenes was examined by separately applying 20 μL of each sample (1.6 mM in MeOH) to sterilized filter paper discs which were placed onto the surface of S. pyogenes grown on Mueller-Hinton agar plates (Mangahas, 1996).

DesI = molecular target: T1, DesI; assay: Incubation with purified DesI in the presence of L-glutamate, HPLC analysis; 4-aminotransferase kinetics; type: biochemical
From the text: To verify the catalytic function of DesI, the desI gene was amplified by PCR and cloned into the pET-28b(+) expression vector (Novagen) with a His6-tag at the N-terminus. The produced DesI protein was purified to near homogeneity by a Ni-NTA column (Qiagen) followed by FPLC on a MonoQ column.

[1] = molecular target: cytochrome P450 hydroxylase (PikC) (Streptomyces venezuelae, UniProt O87605); assay: Incubation with purified PikC in vitro (aglycone hydroxylation); type: biochemical
Sequence of cytochrome P450 hydroxylase (PikC) (O87605 whole entry): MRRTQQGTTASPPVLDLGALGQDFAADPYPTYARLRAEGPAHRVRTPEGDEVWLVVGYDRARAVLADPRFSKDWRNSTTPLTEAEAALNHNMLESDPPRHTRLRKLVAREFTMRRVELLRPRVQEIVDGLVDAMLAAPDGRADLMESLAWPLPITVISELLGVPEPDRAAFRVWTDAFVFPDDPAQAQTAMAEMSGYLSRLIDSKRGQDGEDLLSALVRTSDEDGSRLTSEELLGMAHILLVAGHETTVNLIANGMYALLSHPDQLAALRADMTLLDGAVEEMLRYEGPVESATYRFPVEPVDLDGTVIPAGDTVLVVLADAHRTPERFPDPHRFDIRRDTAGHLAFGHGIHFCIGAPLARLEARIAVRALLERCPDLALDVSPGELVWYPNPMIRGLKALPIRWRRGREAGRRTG
From the text: Another noteworthy, albeit unexpected result was the fact that the aglycone of the isolated macrolide 31 was 10-deoxymethynolide instead of methymycin and neomethymycin analogues that are hydroxylated. […] It is possible that the cytochrome P450 hydroxylase (PikC), which catalyzes the hydroxylation of 10-deoxymethynolide and narbonolide (Xue et al., 1998) is sensitive to structural variations on the appended sugar. […] A similar observation was also noted in the case where desosamine was replaced by quinovose (Example 4). It could be argued that the presence of a substituent (either hydroxyl or amino group) at C-4 in the sugar moiety is responsible, at least in part, for decreasing or preventing hydroxylation of the macrolide.

DNA = conditions: tight DNA binding, literature; cited from earlier work
[2] = substrate: Cc1cn([C@H]2C[C@H](O)[C@@H](COP(=O)(O)OP(=O)(O)O[C@H]3O[C@H](C)C(=O)[C@H](O)[C@H]3O)O2)c(=O)[nH]c1=O; assay: Incubation with purified DesI in the presence of L-glutamate, HPLC analysis; 4-aminotransferase kinetics; type: biochemical, Streptomyces venezuelae; conditions: other: DesI as PLP-dependent 4-aminotransferase, sugar substrate 6

Row | Molecule | antibiotic activity against Streptococcus pyogenes (inhibition zone around disc) (Streptococcus pyogenes) | activity against Streptococcus pyogenes grown on Mueller-Hinton agar plates (Streptococcus pyogenes) | also measured
1 | C[C@@H]1C[C@H](N(C)C)[C@@H](O)[C@H](O[C@H]2[C@@H](C)C[C@@H](C)C(=O)/C=C/[C@@H](C)[C@@H]([C@@H](C)O)OC(=O)[C@@H]2C)O1 [formula (2), neomethymycin] | clearly visible inhibition zones | clearly visible inhibition zones | –
2 | Cc1cn(C2CC(O)C(COP(=O)(O)OP(=O)(O)OC3OC(C)C(O)C(=O)C3O)O2)c(=O)[nH]c1=O [TDP-3-keto-deoxy-D-glucose (7), TDP-3-keto-deoxy-D-glucose] | – | – | consumption of substrate / formation of new product by DesI (DesI): no consumption
3 | CCC1OC(=O)C(C)C(OC2OC(C)C(NC(C)=O)C(O)C2O)C(C)CC(C)C(=O)C=CC1C (centres unmarked) [compound 31] | – | inactive | aglycone hydroxylation on incubation with purified PikC [1]: no aglycone hydroxylation was discernible
4 | CCC1OC(=O)C(C)C(OC2OC(C)CC(N(C)C)C2O[C@@H]2O[C@H](CO)[C@@H](O)[C@H](O)[C@H]2O)C(C)CC(C)C(=O)C=CC1(C)O (stereo partly drawn) [formula (13), C-2′β-glucosylated methymycin] | no such clearings were discernible | – | –
5 | CC1CC(N(C)C)C(O[C@@H]2O[C@H](CO)[C@@H](O)[C@H](O)[C@H]2O)C(OC2C(C)CC(C)C(=O)C=CC(C)C(C(C)O)OC(=O)C2C)O1 (stereo partly drawn) [formula (14), C-2′β-glucosylated neomethymycin] | no such clearings were discernible | – | –
6 | CC[C@H]1OC(=O)[C@H](C)[C@@H](O[C@@H]2O[C@H](C)C[C@H](N(C)C)[C@H]2O)[C@@H](C)C[C@@H](C)C(=O)/C=C/[C@]1(C)O [formula (1), methymycin] | clearly visible inhibition zones | clearly visible inhibition zones | –
7 | calicheamicin [calicheamicin (26)] | – | – | Ka (DNA binding) (DNA): 10^6-10^8
8 | CC[C@H]1OC(=O)[C@H](C)C(=O)[C@H](C)[C@@H](O[C@@H]2O[C@H](C)C[C@H](N(C)C)[C@H]2O)[C@@H](C)C[C@@H](C)C(=O)/C=C/[C@]1(C)O [pikromycin] | – | clearly visible inhibition zones | –
9 | CCC1OC(=O)C(C)C(=O)C(C)C(OC2OC(C)C(NC(C)=O)C(O)C2O)C(C)CC(C)C(=O)C=CC1C (centres unmarked) [compound 32] | – | inactive | aglycone hydroxylation on incubation with purified PikC [1]: no aglycone hydroxylation was discernible
10 | B1 | – | – | Km [2]: 130 ± 4 µM

— US20040161839A1, “Method to alter sugar moieties” (priority 2003, published 2004)
